Source: PubChem BioAssay AID330 (DTP/NCI, 2004)
Where “and” joins values, the source holds several entries; their conditions need not be identical. Identical values can stand only once. Toxic doses and inconclusive results are not listed. Rule for the calls: active = survival T/C of 150% or more; inactive = T/C below 125% in these data.

Test system: P388 leukemia ip, CD2F1 mice, survival T/C
Test: NCI In Vivo Anticancer Drug Screen. Data for tumor model P388 Leukemia (intraperitoneal) in CD2F1 (CDF1) mice
Conditions: endpoint: median survival time, higher = longer survival
Method in brief: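 Mice carrying the transplanted tumor received test compound or vehicle. Survival was recorded in each group, and the value is the treated-group measurement divided by that of the vehicle-treated control group.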

[1] = dose: 60.0 mg/kg/injection, schedule: Q01DX005 (ip), vehicle: saline with Tween-80
[2] = dose: 120.0 mg/kg/injection, schedule: Q01DX005 (ip), vehicle: saline with Tween-80
[3] = dose: 240.0 mg/kg/injection, schedule: Q01DX005 (ip), vehicle: saline with Tween-80
[4] = dose: 25.0 mg/kg/injection, schedule: Q01DX009 (ip), vehicle: saline with Tween-80
[5] = dose: 50.0 mg/kg/injection, schedule: Q01DX009 (ip), vehicle: saline with Tween-80
[6] = dose: 100.0 mg/kg/injection, schedule: Q01DX009 (ip), vehicle: saline with Tween-80
[7] = dose: 200.0 mg/kg/injection, schedule: Q01DX009 (ip), vehicle: saline with Tween-80
[8] = dose: 50.0 mg/kg/injection, schedule: Q01DX005 (ip), vehicle: Klucel (hydroxypropylcellulose) (HPC)
[9] = dose: 100.0 mg/kg/injection, schedule: Q01DX005 (ip), vehicle: Klucel (hydroxypropylcellulose) (HPC)
[10] = dose: 200.0 mg/kg/injection, schedule: Q01DX005 (ip), vehicle: Klucel (hydroxypropylcellulose) (HPC)
[11] = dose: 50.0 mg/kg/injection, schedule: Q01DX005 (ip), vehicle: saline with Tween-80
[12] = dose: 100.0 mg/kg/injection, schedule: Q01DX005 (ip), vehicle: saline with Tween-80
[13] = dose: 200.0 mg/kg/injection, schedule: Q01DX005 (ip), vehicle: saline with Tween-80
[14] = dose: 12.5 mg/kg/injection, schedule: Q01DX009 (ip), vehicle: saline with Tween-80
[15] = dose: 25.0 mg/kg/injection, schedule: Q01DX009 (ip), vehicle: saline
[16] = dose: 50.0 mg/kg/injection, schedule: Q01DX009 (ip), vehicle: saline
[17] = dose: 100.0 mg/kg/injection, schedule: Q01DX009 (ip), vehicle: saline
[18] = dose: 200.0 mg/kg/injection, schedule: Q01DX009 (ip), vehicle: saline

Measured: T/C

O=CNCc1ccc(S(=O)(=O)F)cc1
inactive: dose: 12.5 mg/kg/injection, schedule: Q01DX009 (ip), vehicle: other 93 % of control | dose: 25.0 mg/kg/injection, schedule: Q01DX009 (ip), vehicle: other 92 % of control | dose: 50.0 mg/kg/injection, schedule: Q01DX009 (ip), vehicle: other 99 % of control | dose: 100.0 mg/kg/injection, schedule: Q01DX009 (ip), vehicle: other 100 % of control

Cc1nnc(NC/C=C/c2ccccc2)s1
inactive: [1] 100 % of control | [2] 96 % of control | [3] 95 % of control

[N-]=[N+]=NCCOCn1ccc(=O)[nH]c1=O
inactive: dose: 60.0 mg/kg/injection, schedule: Q01DX005 (ip), vehicle: saline 103 % of control | dose: 120.0 mg/kg/injection, schedule: Q01DX005 (ip), vehicle: saline 108 % of control | dose: 240.0 mg/kg/injection, schedule: Q01DX005 (ip), vehicle: saline 100 % of control

O=Cc1cc2c(Cl)nccc2o1
inactive: dose: 60.0 mg/kg/injection, schedule: Q01DX005 (ip), vehicle: Klucel (hydroxypropylcellulose) (HPC) 105 % of control | dose: 120.0 mg/kg/injection, schedule: Q01DX005 (ip), vehicle: Klucel (hydroxypropylcellulose) (HPC) 102 % of control | dose: 240.0 mg/kg/injection, schedule: Q01DX005 (ip), vehicle: Klucel (hydroxypropylcellulose) (HPC) 104 % of control

CC1(C)CC(=O)C=C(n2ccccc2=O)C1
inactive: [1] 97 % of control | [2] 102 % of control | [3] 97 % of control

Nc1ccccc1SCc1ccccc1
inactive: [4] 103 % of control | [5] 100 % of control | [6] 102 % of control | [7] 108 % of control

COC(C(=O)C(O)C(C)O)C1Cc2cc3cc(OC4CC(OC(C)=O)C(OC5CC(O)C(OC)C(C)O5)C(C)O4)cc(O)c3c(O)c2C(=O)C1OC1CC(OC2CC(OC3CC(C)(O)C(OC(=O)C(C)C)C(C)O3)C(O)C(C)O2)C(O)C(C)O1 (stereo not given)
inactive: dose: 0.02 mg/kg/injection, schedule: Q01DX010 (ip), vehicle: saline 100 % of control | dose: 0.05 mg/kg/injection, schedule: Q01DX010 (ip), vehicle: saline 100 % of control | dose: 0.4 mg/kg/injection, schedule: Q01DX009 (ip), vehicle: saline 122 % of control | dose: 3.2 mg/kg/injection, schedule: Q01DX010 (ip), vehicle: saline 90 % of control
active: dose: 0.2 mg/kg/injection, schedule: Q01DX009 (ip), vehicle: saline 183 % of control

Cc1ccnc(NC(=O)Nc2cc(F)ccc2F)c1
inactive: dose: 30.0 mg/kg/injection, schedule: Q01DX005 (ip), vehicle: saline with Tween-80 87 % of control | [1] 87 % of control and 89 % of control | [2] 101 % of control | [3] 87 % of control

CC1C[C@@H]2[C@H]([C@@H](O)C[C@@]3(C)[C@H]2CC[C@]3(O)C(=O)CF)[C@@]2(C)CCC(=O)C=C12 (stereo not given in full)
inactive: [6] 100 % of control | dose: 100.0 mg/kg/injection, schedule: Q04DX003 (ip), vehicle: saline with Tween-80 109 % of control | [7] 95 % of control | dose: 200.0 mg/kg/injection, schedule: Q04DX003 (ip), vehicle: saline with Tween-80 109 % of control | dose: 400.0 mg/kg/injection, schedule: Q04DX003 (ip), vehicle: saline with Tween-80 100 % of control

Cc1nc2ccccc2c(N)c1-c1cc(C)c2c(C)nc3ccccc3c2n1
inactive: dose: 25.0 mg/kg/injection, schedule: Q01DX005 (ip), vehicle: Klucel (hydroxypropylcellulose) (HPC) 88 % of control | [8] 87 % of control | [9] 90 % of control | [10] 88 % of control

CN1C(=O)/C(=C2\SC(=O)N(CNc3ccc(Br)cc3)C2=O)c2ccccc21
inactive: dose: 60.0 mg/kg/injection, schedule: Q01DX005 (ip), vehicle: Klucel + Tween-80 88 % of control | dose: 240.0 mg/kg/injection, schedule: Q01DX005 (ip), vehicle: Klucel + Tween-80 89 % of control

Nc1[nH]c(=O)ncc1CS(=O)(=O)O
inactive: dose: 50.0 mg/kg/injection, schedule: Q04DX002 (ip), vehicle: saline with Tween-80 97 % of control | dose: 100.0 mg/kg/injection, schedule: Q04DX002 (ip), vehicle: saline with Tween-80 108 % of control | dose: 200.0 mg/kg/injection, schedule: Q04DX002 (ip), vehicle: saline with Tween-80 107 % of control

CN(C)c1ccc2c(c1)C(=O)N(OS(=O)(=O)c1ccccc1)C2=O
inactive: [11] 100 % of control | [12] 103 % of control | [13] 96 % of control

CC(C)(C(=O)c1ccccc1)C(=O)c1ccccc1
inactive: [5] 95 % of control | [6] 100 % of control | [7] 95 % of control

CCCC(=O)OCC1OC(n2cnc3c(=S)nc[nH]c32)C(OC(=O)CCC)C1OC(=O)CCC (stereo not given)
inactive: dose: 6.25 mg/kg/injection, schedule: Q01DX009 (ip), vehicle: saline with Tween-80 116 % of control | [14] 112 % of control | [4] 112 % of control | [5] 116 % of control

Nc1cn(C2CC(O)C(CO)O2)c(=O)[nH]c1=O (stereo not given)
inactive: [15] 106 % of control | [16] 105 % of control | [17] 105 % of control | [18] 105 % of control

c1ccc2c(c1)Cc1c-2nc2ccccc2c1N1CCOCC1
inactive: dose: 25.0 mg/kg/injection, schedule: Q01DX005 (ip), vehicle: saline with Tween-80 100 % of control | [11] 106 % of control and 93 % of control | [12] 103 % of control and 112 % of control | [13] 119 % of control

Cc1ccc(S(=O)(=O)NC(=O)NC(C)Cc2ccccc2)cc1 (stereo not given)
inactive: [14] 102 % of control | [4] 100 % of control | [5] 101 % of control and 105 % of control | [7] 98 % of control

CCc1nc2c(cnn2C)c(=O)n1-c1ccc(C)cc1
inactive: [8] 97 % of control | [9] 101 % of control | [10] 98 % of control

CCCC(Nc1ncccn1)Nc1ncccn1
inactive: [8] 100 % of control | [9] 100 % of control | [10] 99 % of control

CC1OCN2C(C)CCCC12 (stereo not given)
inactive: dose: 50.0 mg/kg/injection, schedule: Q01DX005 (ip), vehicle: saline 108 % of control | dose: 100.0 mg/kg/injection, schedule: Q01DX005 (ip), vehicle: saline 106 % of control

Nc1c(Cl)[nH]cnc1=S
inactive: dose: 100.0 mg/kg/injection, schedule: Q01DX009 (ip), vehicle: suspension in saline 106 % of control | dose: 200.0 mg/kg/injection, schedule: Q01DX009 (ip), vehicle: suspension in saline 105 % of control | dose: 400.0 mg/kg/injection, schedule: Q01DX009 (ip), vehicle: suspension in saline 99 % of control

CCC(CC)COC(=O)c1ccccc1C(=O)OCC(CC)CC
inactive: [6] 110 % of control and 96 % of control | [7] 101 % of control and 117 % of control

Cc1nn(Cc2ccccc2)c(C)c1-c1c(C)nn(Cc2ccccc2)c1C
inactive: [8] 104 % of control | [9] 103 % of control | [10] 99 % of control

COP(=O)(OC)OC.COP(=O)(OC)OC.COP(=O)(OC)OC.COP(=O)(OC)OC.COP(=O)(OC)OC.COP(=O)(OC)OC.[Mn+2].[O-][Cl+3]([O-])([O-])O
inactive: [16] 99 % of control and 100 % of control | [17] 111 % of control | [18] 109 % of control | dose: 400.0 mg/kg/injection, schedule: Q01DX009 (ip), vehicle: saline 123 % of control

Cc1c(Cl)cccc1N=Cc1ccc(C=Nc2cccc(Cl)c2C)cc1
inactive: dose: 50.0 mg/kg/injection, schedule: Q01DX009 (ip), vehicle: Klucel (hydroxypropylcellulose) (HPC) 94 % of control | dose: 100.0 mg/kg/injection, schedule: Q01DX009 (ip), vehicle: Klucel (hydroxypropylcellulose) (HPC) 92 % of control | dose: 200.0 mg/kg/injection, schedule: Q01DX009 (ip), vehicle: Klucel (hydroxypropylcellulose) (HPC) 91 % of control

CC(C)(C)N=C(c1ccccc1)N1CCCCC1
inactive: [5] 100 % of control | [6] 90 % of control

CCOC(=O)N1CCN(CCCCCOc2ccc(CC(C)(C)C)cc2Cl)CC1
inactive: [4] 110 % of control | [15] 93 % of control | [5] 106 % of control | [16] 100 % of control | [6] 111 % of control | [17] 113 % of control | [7] 117 % of control | [18] 92 % of control

N=c1c2c(ncn1Cc1ccccc1)CCN(Cc1ccccc1)C2
inactive: [14] 101 % of control | [4] 100 % of control and 114 % of control | [5] 104 % of control | [6] 112 % of control

Cc1ccccc1N=c1c2cnn(C)c2ncn1-c1ccccc1C
inactive: [8] 96 % of control | [9] 96 % of control | [10] 93 % of control
